For assay [1], the target named is Cyclin-dependent kinase 5/CDK5 activator 1 (Homo sapiens, UniProt Q00535). The format is cell-based, Sf9.
Assay [2] concerns the target Dual specificity protein kinase CLK2 (Homo sapiens, UniProt P49760).
The target in assay [3] is T1, Dual specificity tyrosine-phosphorylation-regulated kinase 2 (Homo sapiens, UniProt Q92630).
T1 sequence (Q92630 whole entry): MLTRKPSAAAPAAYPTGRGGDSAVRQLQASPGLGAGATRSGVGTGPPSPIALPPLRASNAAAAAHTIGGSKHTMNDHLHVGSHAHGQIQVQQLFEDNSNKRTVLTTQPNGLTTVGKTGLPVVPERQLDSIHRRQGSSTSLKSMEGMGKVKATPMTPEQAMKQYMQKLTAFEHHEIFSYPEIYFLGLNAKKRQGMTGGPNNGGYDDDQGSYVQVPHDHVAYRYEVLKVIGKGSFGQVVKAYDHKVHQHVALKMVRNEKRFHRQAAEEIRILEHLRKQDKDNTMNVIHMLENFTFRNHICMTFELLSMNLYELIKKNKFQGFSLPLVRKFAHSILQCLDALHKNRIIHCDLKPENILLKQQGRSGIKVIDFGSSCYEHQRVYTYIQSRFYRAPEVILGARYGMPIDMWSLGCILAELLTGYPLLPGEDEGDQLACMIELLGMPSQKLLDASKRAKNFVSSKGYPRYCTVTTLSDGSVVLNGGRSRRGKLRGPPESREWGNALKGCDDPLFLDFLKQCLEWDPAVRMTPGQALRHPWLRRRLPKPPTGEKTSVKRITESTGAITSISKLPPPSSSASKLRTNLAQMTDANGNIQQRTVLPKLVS

Assay [4] has as its target Dual specificity protein kinase CLK3 (Homo sapiens, UniProt P49761). Type of assay: cell-based, Sf9.
Assay [5] addresses T2, Dual specificity tyrosine-phosphorylation-regulated kinase 4 (Homo sapiens, UniProt Q9NR20).
T2 sequence (Q9NR20 whole entry): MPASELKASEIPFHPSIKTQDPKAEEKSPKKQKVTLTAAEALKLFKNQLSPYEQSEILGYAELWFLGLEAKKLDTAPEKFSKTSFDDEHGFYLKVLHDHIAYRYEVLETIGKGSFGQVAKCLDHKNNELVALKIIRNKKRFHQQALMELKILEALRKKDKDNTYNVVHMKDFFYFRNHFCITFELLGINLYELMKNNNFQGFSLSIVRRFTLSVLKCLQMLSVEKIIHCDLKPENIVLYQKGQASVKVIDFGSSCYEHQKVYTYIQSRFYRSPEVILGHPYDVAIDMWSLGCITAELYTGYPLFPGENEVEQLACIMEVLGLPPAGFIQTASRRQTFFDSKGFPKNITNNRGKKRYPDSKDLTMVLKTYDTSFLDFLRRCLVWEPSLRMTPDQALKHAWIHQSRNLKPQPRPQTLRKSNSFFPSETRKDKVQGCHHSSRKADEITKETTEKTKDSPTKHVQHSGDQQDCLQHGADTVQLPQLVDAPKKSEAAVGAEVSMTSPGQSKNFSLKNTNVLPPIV

For assay [6], the target named is Dual specificity protein kinase CLK4 (Homo sapiens, UniProt Q9HAZ1).
Sequence of Dual specificity protein kinase CLK4 (Q9HAZ1 whole entry): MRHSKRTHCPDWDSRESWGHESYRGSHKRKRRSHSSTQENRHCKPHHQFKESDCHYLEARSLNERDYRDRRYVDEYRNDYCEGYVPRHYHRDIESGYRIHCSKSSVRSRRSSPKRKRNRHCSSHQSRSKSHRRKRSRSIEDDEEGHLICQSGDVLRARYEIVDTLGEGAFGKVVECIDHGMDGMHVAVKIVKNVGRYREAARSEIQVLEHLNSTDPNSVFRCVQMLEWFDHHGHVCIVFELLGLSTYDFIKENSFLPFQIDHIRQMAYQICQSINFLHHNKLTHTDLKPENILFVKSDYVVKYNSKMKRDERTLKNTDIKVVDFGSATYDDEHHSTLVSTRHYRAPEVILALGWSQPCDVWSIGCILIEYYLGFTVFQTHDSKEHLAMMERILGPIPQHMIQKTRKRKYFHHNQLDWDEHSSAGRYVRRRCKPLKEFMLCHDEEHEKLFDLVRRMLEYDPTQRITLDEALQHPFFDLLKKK
Assay [7] addresses Glycogen synthase kinase-3 beta (Homo sapiens, UniProt P49841). Type of assay: cell-based, Sf9.
In assay [8] the target is Casein kinase I isoform epsilon (Homo sapiens, UniProt P49674).
Sequence of Casein kinase I isoform epsilon (P49674 whole entry, canonical isoform): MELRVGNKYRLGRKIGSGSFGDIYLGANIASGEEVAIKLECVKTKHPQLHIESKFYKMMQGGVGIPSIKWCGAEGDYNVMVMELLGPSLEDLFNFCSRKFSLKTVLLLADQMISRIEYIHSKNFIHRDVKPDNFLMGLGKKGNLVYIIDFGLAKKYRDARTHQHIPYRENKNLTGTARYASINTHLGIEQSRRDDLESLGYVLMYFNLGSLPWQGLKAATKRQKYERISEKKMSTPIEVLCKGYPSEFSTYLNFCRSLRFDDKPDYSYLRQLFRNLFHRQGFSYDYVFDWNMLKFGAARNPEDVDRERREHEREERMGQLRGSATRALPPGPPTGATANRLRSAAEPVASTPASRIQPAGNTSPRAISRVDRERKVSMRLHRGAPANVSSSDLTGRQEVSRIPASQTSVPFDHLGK

Structures are written as SMILES.

Sequence of Dual specificity protein kinase CLK3 (P49761 whole entry): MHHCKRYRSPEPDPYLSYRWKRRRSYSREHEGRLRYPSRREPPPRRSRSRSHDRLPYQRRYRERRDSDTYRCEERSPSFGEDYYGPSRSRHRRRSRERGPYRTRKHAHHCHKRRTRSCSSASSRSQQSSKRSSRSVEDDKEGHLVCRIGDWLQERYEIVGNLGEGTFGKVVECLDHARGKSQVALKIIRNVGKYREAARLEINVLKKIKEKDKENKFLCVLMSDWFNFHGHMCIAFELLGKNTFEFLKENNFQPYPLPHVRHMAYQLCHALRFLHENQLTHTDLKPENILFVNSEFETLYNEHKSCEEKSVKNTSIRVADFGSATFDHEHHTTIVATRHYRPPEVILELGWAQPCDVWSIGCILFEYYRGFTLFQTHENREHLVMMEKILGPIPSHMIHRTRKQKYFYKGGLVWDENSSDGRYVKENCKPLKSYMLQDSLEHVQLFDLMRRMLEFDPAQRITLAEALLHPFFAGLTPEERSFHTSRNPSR
Sequence of Cyclin-dependent kinase 5/CDK5 activator 1 (Q00535 whole entry): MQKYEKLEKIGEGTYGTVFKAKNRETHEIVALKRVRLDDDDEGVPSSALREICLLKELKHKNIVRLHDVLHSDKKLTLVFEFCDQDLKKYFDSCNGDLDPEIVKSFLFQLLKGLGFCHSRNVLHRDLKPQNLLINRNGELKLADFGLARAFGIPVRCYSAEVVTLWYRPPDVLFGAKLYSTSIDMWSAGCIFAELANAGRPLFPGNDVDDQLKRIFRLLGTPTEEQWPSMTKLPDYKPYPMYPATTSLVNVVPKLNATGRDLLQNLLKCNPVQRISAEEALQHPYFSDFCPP
Sequence of Cyclin-dependent kinase 5/CDK5 activator 1 (Q15078 whole entry, further chain): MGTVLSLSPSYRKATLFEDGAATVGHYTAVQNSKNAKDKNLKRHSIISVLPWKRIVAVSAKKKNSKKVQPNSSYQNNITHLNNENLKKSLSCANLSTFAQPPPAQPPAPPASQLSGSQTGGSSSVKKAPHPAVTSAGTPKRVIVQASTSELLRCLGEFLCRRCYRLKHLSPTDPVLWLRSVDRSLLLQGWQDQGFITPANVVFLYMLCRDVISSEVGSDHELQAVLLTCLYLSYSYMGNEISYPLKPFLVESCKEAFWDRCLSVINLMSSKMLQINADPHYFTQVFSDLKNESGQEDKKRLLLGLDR
Sequence of Glycogen synthase kinase-3 beta (P49841 whole entry, canonical isoform): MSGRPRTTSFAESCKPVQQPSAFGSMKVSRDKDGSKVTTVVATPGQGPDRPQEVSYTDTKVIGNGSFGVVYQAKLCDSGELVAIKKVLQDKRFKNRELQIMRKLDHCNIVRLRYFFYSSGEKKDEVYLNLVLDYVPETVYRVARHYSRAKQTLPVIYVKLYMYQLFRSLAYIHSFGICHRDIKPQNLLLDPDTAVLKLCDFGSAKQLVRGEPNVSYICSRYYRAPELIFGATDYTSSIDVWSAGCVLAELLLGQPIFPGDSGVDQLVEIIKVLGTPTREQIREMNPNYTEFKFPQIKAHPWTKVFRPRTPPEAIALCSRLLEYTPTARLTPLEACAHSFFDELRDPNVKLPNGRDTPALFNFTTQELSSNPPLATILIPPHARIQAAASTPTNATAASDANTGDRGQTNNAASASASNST
Sequence of Dual specificity protein kinase CLK2 (P49760 whole entry): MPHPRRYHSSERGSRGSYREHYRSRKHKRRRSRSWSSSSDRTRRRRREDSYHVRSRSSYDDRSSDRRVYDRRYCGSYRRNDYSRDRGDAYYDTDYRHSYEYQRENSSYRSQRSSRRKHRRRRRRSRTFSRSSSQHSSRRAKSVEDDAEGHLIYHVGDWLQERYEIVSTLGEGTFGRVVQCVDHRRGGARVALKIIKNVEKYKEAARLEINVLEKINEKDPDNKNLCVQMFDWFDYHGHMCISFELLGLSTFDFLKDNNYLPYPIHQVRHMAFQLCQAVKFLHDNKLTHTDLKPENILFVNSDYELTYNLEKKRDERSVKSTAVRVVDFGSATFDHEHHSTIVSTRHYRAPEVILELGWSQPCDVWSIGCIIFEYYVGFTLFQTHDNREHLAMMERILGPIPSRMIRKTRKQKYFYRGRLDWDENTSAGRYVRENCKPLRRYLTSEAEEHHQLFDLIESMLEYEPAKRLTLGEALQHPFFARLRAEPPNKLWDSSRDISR

Turning to `Cc1cnc(CNC2=N/C(=C\c3ccc4ncsc4c3)C(=O)N2)cn1`, the IC50 is above 10000 nM in assay [1]; 303 nM in assay [2]; 3950 nM in assay [3]; 4140 nM in assay [4]; 8330 nM in assay [5]; 32 nM in assay [6]. The IC50 in assay [7] is 9030 nM; in assay [8] it was above 10000 nM.
`O=C1NC(N[C@H]2c3ccccc3C[C@@H]2O)=N/C1=C\c1ccc2ncsc2c1`: the IC50 was above 10000 nM in assay [1]; 1540 nM in assay [3]; 713 nM in assay [4]; 2040 nM in assay [5]; 3 nM in assay [6]; 429 nM in assay [7]. The IC50 in assay [8] was above 10000 nM.
For `Cc1nc2ccc(/C=C3\N=C(NC4CCCCC4)NC3=O)cc2s1`, the IC50 was above 10000 nM in assay [1]; 4710 nM in assay [3]; 5040 nM in assay [4]; above 10000 nM in assay [5]; 351 nM in assay [6]; above 10000 nM in assay [7]. In assay [8], this compound displayed an IC50 above 10000 nM.
Turning to `O=C1NC(N[C@@H](CO)CC2CCCCC2)=N/C1=C\c1ccc2ncsc2c1`, the IC50 is above 10000 nM in assay [1]; 100 nM in assay [2]; 4390 nM in assay [4]; 3120 nM in assay [5]; 26 nM in assay [6]; 3310 nM in assay [7]. The same compound registered an IC50 in assay [8] above 10000 nM.
Regarding `O=C1NC(NCCc2ccccn2)=N/C1=C\c1ccc2ncsc2c1`, the IC50 in assay [1] is above 10000 nM; in assay [2], 349 nM; in assay [3] it was 1350 nM; in assay [4], 697 nM; in assay [5] it was 2150 nM; in assay [6], 34 nM. In addition, the values for the IC50 in assay [7] and in assay [8] were 3710 nM and above 10000 nM, respectively.
For `COC(=O)C1(NC2=N/C(=C\c3ccc4ncsc4c3)C(=O)N2)C2CC3CC(C2)CC1C3` (stereo unspecified), the 50% inhibitory concentration (IC50) in assay [1] was 3290 nM; in assay [2], 531 nM; in assay [3] it was 702 nM; in assay [4], 167 nM; in assay [5], 1740 nM; in assay [6], 161 nM. Moreover, the concentration for half-maximal inhibition (IC50) is 659 nM in assay [7] and above 10000 nM in assay [8].
With `O=C1NC(N[C@@H](CO)Cc2ccccc2)=N/C1=C\c1ccc2ncsc2c1`, the IC50 in assay [1] was above 10000 nM; in assay [2], 90 nM; in assay [3], 886 nM; in assay [4], 295 nM; in assay [5] it was 1150 nM; in assay [6], 14 nM. Also, the IC50 in assay [7] was 2740 nM; in assay [8], above 10000 nM.
For `CC(=O)OC12CC3CC(CC(NC4=N/C(=C\c5ccc6ncsc6c5)C(=O)N4)(C3)C1)C2`, the 50% inhibitory concentration (IC50) in assay [1] came out at 4660 nM; in assay [2], 14 nM; in assay [3], 145 nM; in assay [4] it was 1660 nM; in assay [5], 597 nM; in assay [6], 19 nM. Also, the IC50 was 2440 nM in assay [7] and above 10000 nM in assay [8].

As a reminder, the IC50 is the concentration that inhibits the measured activity by half. Lower therefore signals greater potency in that assay.

Values taken from ChEMBL document CHEMBL5360622, “Leucettinibs, a Class of DYRK/CLK Kinase Inhibitors Inspired by the Marine Sponge Natural Product Leucettamine B” (J Med Chem, 2023).
